How the values were obtained:
ACAT of HepG2 microsome = test: In-vitro test using Hep G2 microsome (ACAT inhibition); format: biochemical, human
Method: (1) In-vitro Test Using Hep G2 Microsome
ACAT enzyme fraction was prepared from microsome of human derived hepatoma Hep G2 cell according to Sandra's method [Journal of Lipid Research, 27, 875 (1986)].
Microsome was suspended at a concentration of 200 μg protein/20 μl in 0.1M phosphate buffer solution (pH7.4) and the suspension was preincubated at 37° C. for 5 minutes after addition of 10 μl of each test compound dissolved in 0.1M phosphate buffer solution containing bovine serum albmin (BSA). Then, the reaction was initiated by the addition of 5 nmoles of labeled [^14 C]-oleoyl-CoA dissolved in 20 μl of the said phosphate buffer solution containing BSA and the reaction was stopped by the addition of 20 μl of 2N HCl after 10 minutes. [^14 C] cholesterol-oleate formed was separated by thin-layer chromatography and the radioactivity was counted with liquid scintillation counter.
(§1) ACAT inhibitory activities of the test compounds were shown as IC50 values.

ACAT of THP-1 cells = target: T1, ACAT of THP-1 cells (Homo sapiens, UniProt P35610); test: In-vitro test using THP-1 intact cell (ACAT inhibition); format: cell-based; settings: read-out: IC50 THP1 (intact cell)
T1 construct: differentiated into macrophage-like cells by phorbol ester; endogenous in cells; host or cells: THP-1 (human leukemia), intact cells differentiated by phorbol ester
T1 sequence (P35610 1-550): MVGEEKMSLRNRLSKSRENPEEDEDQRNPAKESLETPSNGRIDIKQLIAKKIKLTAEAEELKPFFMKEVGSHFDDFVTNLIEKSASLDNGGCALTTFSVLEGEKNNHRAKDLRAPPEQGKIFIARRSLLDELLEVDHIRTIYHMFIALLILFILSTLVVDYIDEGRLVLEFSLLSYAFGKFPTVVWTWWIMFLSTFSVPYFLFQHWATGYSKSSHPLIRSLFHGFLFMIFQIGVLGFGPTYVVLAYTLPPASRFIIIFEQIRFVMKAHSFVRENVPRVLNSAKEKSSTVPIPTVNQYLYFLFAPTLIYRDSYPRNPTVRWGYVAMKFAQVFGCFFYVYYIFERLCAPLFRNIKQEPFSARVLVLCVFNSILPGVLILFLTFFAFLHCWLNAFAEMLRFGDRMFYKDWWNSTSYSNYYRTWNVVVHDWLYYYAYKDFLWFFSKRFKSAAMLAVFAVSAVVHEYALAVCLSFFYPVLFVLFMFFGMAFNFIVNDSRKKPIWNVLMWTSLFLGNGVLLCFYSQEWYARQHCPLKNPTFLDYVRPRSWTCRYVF
Method: (2) In-vitro Test Using THP-1 Intact Cell
About 2 million cells of human leukemia cell line, THP-1 were seeded in a well with 2 ml of medium and differentiated into macrophage-like cells by phorbol ester. Then, the cells were washed with phosphate-buffered saline (PBS) solution and the medium was replaced by fresh medium supplemented with 10% of lipoprotein-deficient serum. After the addition of each test compound dissolved in dimethyl sulfoxide and 100 μg protein-containing human low density lipoprotein (LDL), the reaction was initiated by the addition of 10 nmoles of labeled [^14 C]oleic acid and 10 nmoles of oleic acid complexed with BSA in PBS solution. After 22 hours, the reaction was stopped by removal the medium and CHCl3 -MeOH (2:1) were added to the cell suspension in order to extract lipids.
Intracellular [^14 C] cholesterol-oleate formed was separated by thin-layer chromatography and the radioactivity was counted with lipid scintillation counter.
as §1

[1] = Acute toxicity, male ICR strain mouse; format: in vivo; settings: 1000 mg/kg orally, seven days after administration
Method: (1) Acute toxicity: Nine compounds (Example Nos. 1, 2, 5, 6, 12, 19, 28, 31 and 45) were tested by using male ICR strain mouse weighing 23.0±0.7 g.

THP-1 microsomal ACAT [2] = target: T2, THP-1 microsomal ACAT (Homo sapiens, UniProt P35610); test: In vitro test using THP-1 microsome (ACAT inhibition); format: biochemical; settings: THP-1 microsome; read-out: IC50 THP1 microsome
T2 construct: ACAT enzyme fraction was prepared from microsome of human leukemia THP-1 cell; endogenous in cells; host or cells: THP-1 (human leukemia), microsomes
T2 sequence (P35610 1-550): T1 sequence (P35610 1-550)
Method: (4) In Vitro Test Using THP-1 Microsome
Then, the reaction was initiated by the addition of 5 nmoles of labeled [^14 C] oleoyl-CoA dissolved in 20 μl of said phosphate buffer solution containing BSA and the reaction was stopped by the addition of 20 μl of 2N HCl after 10 minutes. [^14 C] cholesterol-oleate formed was separated by thin-layer chromatography and the radioactivity was counted with liquid scintillation counter.

THP-1 microsomal ACAT [3] = target: T2, THP-1 microsomal ACAT; test: Bioavailability assessment of ACAT inhibitors by their ex vivo activity (serum of dosed mice on THP-1 microsomal ACAT); format: in vivo; settings: female mice, 30 mg/kg per os, 1% CMC-Na 0.2% Tween 80; maximum inhibition by serum
Method: (5) Bioavailability Assessment of ACAT Inhibitors by Their <<ex vivo>> Activity
[…] Blood samples were collected 0.5, 1, 1.5, 2, 6 hour postdose. Serum were harvested after gentle centrifugation and stored at -20.
The following day, 10 μl serum were preincubated at 37 for 5 minutes with 20 μl of THP-1 microsomal ACAT and then incubated 10 minutes with 20 μl of radiolabeled oleoyl-CoA as described above in method (4). The serum is used instead of the drug solution.
ACAT inhibitory activities of the test compounds were shown as maximum inhibition percentages (Imax).

ACAT of macrophages = test: In vivo test using peritoneal macrophages in C57BL/6J mice (ACAT inhibition); parameters: species or system mouse; settings: female C57BL/6J mice, 30 mg/kg/day per os for 4 days
Method: (6) In Vivo Test Using Peritoneal Macrophages in C57BL/6J Mice
A standard pellet diet fed female C57BL/6J mice were administered at 10 a.m. per os 30 mg/kg/day of oral suspension (1% CMC-Na 0.2% Tween 80) for 4 days. Thioglycollate and [^14 C] cholesterol were injected […], mice were sacrificed for the collection of peritoneal macrophages. Lipid was extracted, formed [^14 C] cholesterol-ester was separated by thin-layer chromatography and radioactivity was counted as described above in method (3).
In vivo ACAT inhibitory activities on macrophages were expressed as percentage of inhibition compared to control group.

SMILES | IC50 (ACAT of HepG2 microsome) [µM] | IC50 (ACAT of THP-1 cells) [µM] | macroscopic changes on any organs at autopsy [1] | IC50 (THP-1 microsomal ACAT [2]) [µM] | Imax Ex vivo (THP-1 microsomal ACAT [3]) [%] | Inhibition rate (macrophages) (ACAT of macrophages; Experiment 2) [%] | Inhibition rate (macrophages) (ACAT of macrophages; Experiment 1) [%]
CCCCCCNC(=O)Nc1ccccc1C(=O)NCC1CCN(C(c2ccccc2)c2ccccc2)CC1 [Example 4, 2-(N'-n-Hexylureido)-N-[(1-diphenylmethylpiperidin-4-yl)methyl]benzamide] | 0.9 | 0.09 | – | – | – | – | –
CCCCCCCNC(=O)Nc1ccc(N(C)C)cc1C(=O)NC1CCN(C(c2ccccc2)c2ccccc2)CC1 [Example 31, 2-(N'-n-Heptylureido)-5-dimethylamino-N-(1-diphenylmethylpiperidin-4-yl)-benzamide] | 0.8 | 0.2 | no macroscopic changes were observed | – | – | – | –
CCCCCCCNC(=O)Nc1ccc(O)cc1C(=O)NCCC(c1ccccc1)c1ccccc1 [Example 19, 2-(N'-n-Heptylureido)-5-hydroxy-N-(3,3-diphenylpropyl)benzamide] | 3.6 | 0.1 | no macroscopic changes were observed | – | – | – | –
CCCCCNC(=O)Nc1ccccc1C(=O)NCC1CCN(C(c2ccccc2)c2ccccc2)CC1 [Example 3, 2-(N'-n-Pentylureido)-N-[(1-diphenylmethylpiperidin-4-yl)methyl]benzamide] | 0.9 | 0.1 | – | – | – | – | –
CCCNC(=O)Nc1ccc(N2CCOCC2)cc1C(=O)NCC1CCN(C(c2ccccc2)c2ccccc2)CC1 [Example 71, 5-(Morpholin-4-yl)-2-(N'-n-propylureido)-N-[(1-diphenylmethylpiperidin-4-yl)methyl]-benzamide] | – | – | – | 0.09 | 81.1 | 73.5 | –
CCCCCNC(=O)Nc1ccccc1C(=O)NCCC1CCN(C(c2ccccc2)c2ccccc2)CC1 [Example 29, 2-(N'-n-Pentylureido)-N-[2-(1-diphenylmethylpiperidin-4-yl)ethyl]benzamide] | 1.6 | 0.2 | – | – | – | – | –
CCCCCCCCCCNC(=O)Nc1ccccc1C(=O)NC1CCN(C(c2ccccc2)c2ccccc2)CC1 [Example 12, 2-(N'-n-Decylureido)-N-(1-diphenylmethylpiperidin-4-yl)benzamide] | 8 | 0.7 | no macroscopic changes were observed | – | – | – | –
CCCCCCNC(=O)Nc1ccccc1C(=O)NCCC1CCN(C(c2ccccc2)c2ccccc2)CC1 [Example 30, 2-(N'-n-Hexylureido)-N-[2-(1-diphenylmethylpiperidin-4-yl)ethyl]benzamide] | 1.2 | 0.2 | – | – | – | – | –
CCCCCCCNC(=O)Nc1ccccc1C(=O)NCCC1CCN(C(c2ccccc2)c2ccccc2)CC1 [Example 28, 2-(N'-n-Heptylureido)-N-[2-(1-diphenylmethylpiperidin-4-yl)ethyl]benzamide] | 1.2 | 0.1 | no macroscopic changes were observed | – | – | – | –
CCCCCCCNC(=O)Nc1ccccc1C(=O)NC1CCN(C(c2ccccc2)c2ccccc2)CC1 [Example 45, 2-(N'-n-Heptylureido)-N-(1-diphenylmethylpiperidin-4-yl)benzamide] | 2.8 | 0.8 | no macroscopic changes were observed | – | – | – | –
CCCNC(=O)Nc1ccc(N(C)C)cc1C(=O)NCC1CCN(C(c2ccccc2)c2ccccc2)CC1 [Example 66, 5-Dimethylamino-2-(N'-n-propylureido)-N-[(1-diphenylmethylpiperidin-4-yl)methyl]-benzamide] | – | – | – | 0.08 | 77.59 | – | 73.5
CCCCNC(=O)Nc1ccc(N(C)C)cc1C(=O)NCC1CCN(C(c2ccccc2)c2ccccc2)CC1 [Example 63, 2-(N'-n-Butylureido)-5-dimethylamino-N-[(1-diphenylmethylpiperidin-4-yl)-methyl]-benzamide] | – | – | – | 0.05 | 68.52 | 61.0 | 72.3
CCCCNC(=O)Nc1ccc(N2CCOCC2)cc1C(=O)NCC1CCN(C(c2ccccc2)c2ccccc2)CC1 [Example 70, 2-(N'-n-Butylureido)-5-(morpholin-4-yl)-N-[(1-diphenylmethylpiperidin-4-yl)methyl]-benzamide] | – | – | – | 0.06 | – | 73.0 | –
CCCCCCCCNC(=O)Nc1ccccc1C(=O)NCC1CCN(C(c2ccccc2)c2ccccc2)CC1 [Example 6, 2-(N'-n-Octylureido)-N-[(1-diphenylmethylpiperidin-4-yl)methyl]benzamide] | 1.6 | 0.05 | no macroscopic changes were observed | – | – | – | –
CCCCNC(=O)Nc1ccc(-n2ccnc2)cc1C(=O)NCC1CCN(C(c2ccccc2)c2ccccc2)CC1 [Example 64, 2-(N'-n-Butylureido)-5-(imidazol-1-yl)-N-[(1-diphenylmethylpiperidin-4-yl)-methyl]-benzamide] | – | – | – | 0.2 | 43.14 | – | –
CCCCNC(=O)Nc1ccccc1C(=O)NCC1CCN(C(c2ccccc2)c2ccccc2)CC1 [Example 2, 2-(N'-n-Butylureido)-N-[(1-diphenylmethylpiperidin-4-yl)methyl]benzamide] | 1 | 0.1 | no macroscopic changes were observed | – | – | – | –
CCCCCCCNC(=O)Nc1ccc(N(C)C)cc1C(=O)NCC1CCN(Cc2ccccc2-c2ccccc2)CC1 [Example 96, 2-(N'-n-Heptylureido)-5-dimethylamino-N-[1-(2-biphenylmethylpiperidin-4-yl)methyl]-benzamide] | – | – | – | 0.08 | 20.45 | – | –
CCCCNC(=O)Nc1ccc(N(CC)CC)cc1C(=O)NCC1CCN(C(c2ccccc2)c2ccccc2)CC1 [Example 62, 2-(N'-n-Butylureido)-5-diethylamino-N-[(1-diphenylmethylpiperidin-4-yl)-methyl]-benzamide] | – | – | – | 0.03 | 62.57 | – | –
